Experiments:
Aromatase [1] = target: T1, Aromatase (Homo sapiens, UniProt P11511); assay: Irreversible inhibition of recombinant human CYP19A1 assessed as inhibition of DBF conversion to fluorescein by-product by fluorometry
T1 sequence (P11511 whole entry): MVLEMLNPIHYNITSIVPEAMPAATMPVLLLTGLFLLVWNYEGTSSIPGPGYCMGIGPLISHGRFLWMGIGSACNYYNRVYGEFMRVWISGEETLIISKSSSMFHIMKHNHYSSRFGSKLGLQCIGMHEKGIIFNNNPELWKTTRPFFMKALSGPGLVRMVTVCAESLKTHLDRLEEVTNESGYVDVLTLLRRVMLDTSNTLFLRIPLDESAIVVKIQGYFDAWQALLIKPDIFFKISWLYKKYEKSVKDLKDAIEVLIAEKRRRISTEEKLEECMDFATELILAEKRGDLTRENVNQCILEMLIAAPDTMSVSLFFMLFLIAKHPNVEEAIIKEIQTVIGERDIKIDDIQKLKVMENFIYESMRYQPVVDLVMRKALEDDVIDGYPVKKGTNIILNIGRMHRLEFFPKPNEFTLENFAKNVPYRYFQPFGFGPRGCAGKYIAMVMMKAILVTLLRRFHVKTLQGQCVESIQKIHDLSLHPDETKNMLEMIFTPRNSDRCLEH

Aromatase [2] = target: T1, Aromatase
Description: Inhibition of recombinant human CYP19A1 assessed as inhibition of DBF conversion to fluorescein by-product by fluorometry

Aromatase [3] = target: T1, Aromatase; assay: Reversible inhibition of recombinant human CYP19A1 assessed as inhibition of DBF conversion to fluorescein by-product by fluorometry

Compound | Ki (Aromatase [2]) [nM] | other results
CCOC(=O)c1nnn(Cc2ccccc2)c1-c1ccccc1 | – | Ki (Aromatase [1]): 1410 nM
CCOC(=O)c1nnn(Cc2ccccc2)c1-c1ccc2c(c1)OCO2 | 710 | –
CCOC(=O)c1nnn(Cc2cccc(Br)c2)c1-c1ccc(Br)cc1 | – | Ki (Aromatase [3]): 20 nM
CCOC(=O)c1nnn(Cc2ccccc2)c1-c1ccc(Br)cc1 | – | Ki (Aromatase [3]): 640 nM
CCOC(=O)c1nnn(Cc2cccc(Br)c2)c1-c1ccccc1 | 150 | –

Continued, in another order:

Ki (Aromatase [2]) [nM] | Compound | other results
360 | CCOC(=O)c1nnn(Cc2ccccc2)c1-c1ccc(Cl)cc1 | –
710 | CCOC(=O)c1nnn(Cc2ccccc2)c1-c1ccc(C)cc1 | –
